Results reported in PubChem BioAssay (NCI).
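1) Cells in 96-well plates. 2) Compound, 48 h, 5 concentrations. 3) Linear interpolation between surrounding doses. 4) Unreached endpoint = highest concentration. TGI: concentration producing complete growth inhibition.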

What was measured:
Assay in all cases: DTP human tumour cell line panel, 48 h
[1] = tested on: A498 renal
[2] = tested on: A549 NSCLC
[3] = tested on: EKVX NSCLC
[4] = tested on: HCT-116 colon
[5] = tested on: HOP-62 NSCLC
[6] = tested on: HS 578T breast
[7] = tested on: MCF7 breast
[8] = tested on: OVCAR-4 ovarian
[9] = tested on: SK-MEL-28 melanoma
[10] = tested on: SK-MEL-5 melanoma
[11] = tested on: TK-10 renal

| SMILES | TGI [1] [µM] | TGI [2] [µM] | TGI [3] [µM] | TGI [4] [µM] | TGI [5] [µM] | TGI [6] [µM] | TGI [7] [µM] | TGI [8] [µM] | TGI [9] [µM] | TGI [10] [µM] | TGI [11] [µM] |
| --- | --- | --- | --- | --- | --- | --- | --- | --- | --- | --- | --- |
| CCOC(=O)C12OC(CCC1=O)C(C(=O)OC)=C2C(=O)OC (configuration not stated) | > 10 | > 10 | > 10 | > 10 | > 10 | > 10 | > 10 | > 10 | > 10 | > 10 | > 10 |
| CC(=O)c1c(C)n([O-])c2cc(Cl)c(Cl)cc2[n+]1=O | 70.4 | 56.2 | > 100 | > 100 | > 100 | 74 | > 100 | 63.8 | > 100 | 26.4 | 71.3 |
| Nc1nc(N)c2c3c(cnc2n1)CC(c1ccccc1)CC3 (configuration not stated) | > 100 | > 100 | > 100 | 32.5 | 76.7 | > 100 | 30.4 | 41.9 | > 100 | > 100 | 97.9 |
| COC(=O)C1=C(C(=O)NNc2ccccc2)N(c2cccnc2Cl)C(c2ccccc2)=CC1c1ccccc1 (configuration not stated) | > 100 | > 100 | > 100 | > 100 | > 100 | > 100 | > 100 | > 100 | > 100 | > 100 | > 100 |
| COc1ccc(C(OCC2OC(n3cc(C)c(=O)[nH]c3=O)CC2n2cc(Cn3cc(Cl)c(=O)[nH]c3=O)nn2)(c2ccccc2)c2ccccc2)cc1 (configuration not stated) | > 100 | > 100 | > 100 | > 100 | > 100 | > 100 | > 100 | > 100 | > 100 | > 100 | > 100 |
| Cc1[nH]nc(C(F)(F)F)c1N=NN1CCOCC1 | 32.6 | 24.7 | 21.3 | 6.12 | 28.5 | 40.5 | 21 | 15.1 | 32.7 | 12.8 | 26.7 |
| COC(=O)C(Cc1c[nH]c2ccccc12)NP(=O)(O)OCC1OC(n2cc(I)c(=O)[nH]c2=O)CC1O (configuration not stated) | > 100 | > 100 | > 100 | > 100 | > 100 | > 100 | > 100 | > 100 | > 100 | > 100 | > 100 |
